According to publication PMC7549094 (Journal of Medicinal Chemistry, 2020):

Molecular target: T1, hr COX-2 (Homo sapiens, UniProt P35354)
T1 sequence (P35354 18-604): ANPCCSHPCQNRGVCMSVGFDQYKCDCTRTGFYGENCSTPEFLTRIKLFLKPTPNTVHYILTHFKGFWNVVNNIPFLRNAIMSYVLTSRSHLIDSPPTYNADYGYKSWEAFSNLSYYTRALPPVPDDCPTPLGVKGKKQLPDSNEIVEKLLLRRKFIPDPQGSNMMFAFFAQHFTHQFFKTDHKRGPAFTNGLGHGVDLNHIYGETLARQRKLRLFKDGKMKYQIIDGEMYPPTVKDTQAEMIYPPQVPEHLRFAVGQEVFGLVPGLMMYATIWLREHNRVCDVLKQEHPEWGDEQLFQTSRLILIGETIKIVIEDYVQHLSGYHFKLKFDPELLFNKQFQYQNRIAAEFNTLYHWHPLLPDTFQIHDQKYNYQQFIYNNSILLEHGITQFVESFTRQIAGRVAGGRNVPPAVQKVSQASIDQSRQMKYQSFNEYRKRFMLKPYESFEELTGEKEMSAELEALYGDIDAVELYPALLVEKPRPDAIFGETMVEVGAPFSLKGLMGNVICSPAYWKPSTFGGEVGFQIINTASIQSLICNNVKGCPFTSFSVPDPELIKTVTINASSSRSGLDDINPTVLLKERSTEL
Experiment: receptor profile (Table S4)
Assay type: biochemical

In the case of `Cc1nc(C)c(C(=O)Nc2ccc(F)c(-c3nc4ncc(-c5ncccc5C)cn4n3)c2)o1` [compound 1, N-(4-Fluoro-3-(6-(3-methylpyridin-2-yl)-[1,2,4]triazolo[1,5-a]pyrimidin-2-yl)phenyl)-2,4-dimethyloxazole-5-carboxamide], the EC50/IC50 (hr COX-2) is reported as greater than 30 µM, the inhibition at 10 µM (read-out: % inh/act @ 10 µM) is reported as 9% and the inhibition at 30 µM (read-out: % inh/act @ 30 µM) is reported as 13%.
